Read-outs that look alike come from different tables or passages of the source. Marks after values point to notes of the source that are not given here.
Assays:
human COX-1 = biological target: T1, human COX-1 (Homo sapiens, UniProt P23219); experiment: Determination of COX-1 inhibitory activity (microsome fraction, chemiluminescence); format: biochemical; details: microsome fraction 40 μg, arachidonic acid, 37° C. 25 minutes preincubation; read-out: Repression rate IC50 (μM) COX-1
T1 construct: made in house; host or cells: Sf-21 insect cells (recombinant baculovirus BAC-COX1, pFASTBAC1); microsome fraction
T1 sequence (P23219 24-599): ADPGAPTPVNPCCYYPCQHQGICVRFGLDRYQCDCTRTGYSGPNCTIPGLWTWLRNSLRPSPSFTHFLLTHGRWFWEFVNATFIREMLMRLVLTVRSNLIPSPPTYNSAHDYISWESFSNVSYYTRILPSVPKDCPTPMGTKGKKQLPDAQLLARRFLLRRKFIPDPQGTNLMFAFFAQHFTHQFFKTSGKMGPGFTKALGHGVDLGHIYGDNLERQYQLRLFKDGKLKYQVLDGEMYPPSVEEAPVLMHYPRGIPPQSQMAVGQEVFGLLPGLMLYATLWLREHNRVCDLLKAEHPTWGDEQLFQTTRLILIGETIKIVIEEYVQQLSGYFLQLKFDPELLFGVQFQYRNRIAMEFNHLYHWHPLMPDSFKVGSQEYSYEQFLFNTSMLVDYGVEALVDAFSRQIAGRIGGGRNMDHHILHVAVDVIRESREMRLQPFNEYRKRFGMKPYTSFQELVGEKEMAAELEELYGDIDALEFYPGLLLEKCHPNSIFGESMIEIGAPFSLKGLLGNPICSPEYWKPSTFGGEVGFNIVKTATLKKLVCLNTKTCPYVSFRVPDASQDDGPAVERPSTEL
Description: A 1.8 kb DNA fragment containing human COX-1 cDNA (FASEB J., vol. 5 (9), p. 2304-2312 (1991)) prepared by the PCR method was inserted into plasmid pFASTBAC1 (CIBCOBRL) to obtain a plasmid pFBCOX1.
Using the plasmid pFBCOX1 and BAC-TO-BAC Baculovirus Expression System (GIBCOBRL), a virus stock BAC-COX1 of the recombinant baculovirus was prepared.
Sf-21 cells were inoculated in 125 mL of Sf-900 II SFM medium (GIBCOBRL) at a concentration of 1×10^6 cells/mL, and the medium was incubated at 27° C. for 24 hours. 0.75 mL of the virus stock BAC-COX1 of the recombinant baculovirus was added thereto, and the mixture was incubated further for 72 hours. The cells were separated from the medium by centrifugation (3000 rpm, 10 min), and washed with PBS twice. The cells were suspended in 10 mL of a Lysis buffer (0.1M Tris-HCl (pH 7.4), 5 mM EDTA), and were treated with a homogenizer (POLYTRON) three times at 20000 rpm for 20 seconds so that the cells were crushed. The supernatant obtained after centrifugation (2000 rpm, 10 minutes) was further centrifuged (40000 rpm, 45 minutes) to give a precipitate, which was resuspended in a Lysis buffer (0.1M Tris-HCl (pH 7.4), 5 mM EDTA), and the suspension was stored at −80° C.
Determination of COX-1 and COX-2 Inhibitory Activities
To a mixture of 20 μL of a reaction buffer previously concentrated 10 times (1M Tris-HCl (pH8.0), 50 mM EDTA, 1.0% Tween 20, 50 mM luminol, 100 μM hematin), 20 μL of the microsome fractions (COX-1: 40 μg, COX-2: 20 μg), and 55 μL of distilled water, a sample compound dissolved in DMF (5 μL) was added, and the mixture was left at 37° C. for 25 minutes. The reaction was started by the addition of 20 μM arachidonic acid (100 μL), and chemiluminescence amount during the 10-second period after the addition of arachidonic acid was determined by the use of Lumistar (BMG Lab technologies, GmbH). The inhibition rate was calculated, regarding that the enzyme activity when DMF ([…]) was added was 100%, and the enzyme activity when 4 mM flurbiprofen (5 μL) was added was 0%.

[1] = tested on: carrageenin edema of right hind limb plantar; experiment: Anti-inflammatory activity, carrageenin edema method; format: in vivo, SD-rats; details: po
Description: Anti-Inflammatory Activity
Male SD-rats (6 weeks old, CLEA Japan) were used (1 group, n=6). The Carrageenin edema method was performed according to the method of Winter et. al., (Proc. Soc. Exp. Biol. Med., vol. 111, p. 544-547, 1962). After the volume of right hind limb plantar of the rat was determined, a sample was orally administered (1.0 mL, b.w.), and immediately water was orally administered in an amount of 5 mL/rat. Meanwhile, only the solvent of the sample was orally administered to rats in control. After 1 hour, a solution of 1% carrageenin in saline (0.05 mL) was injected into the right hind limb plantar subcutaneously to induce edema. After 2 and 3 hours later from the injection, volumes of the right hind limb plantar were determined. The repression rate (%) of the sample was calculated by comparing the difference of the volumes of the plantar before the carrageenin shot and 2 and 3 hours after the shot between the sample groups and the control groups.

yeast-induced pyrexia = experiment: Antipyretic activity in yeast-induced pyrexia; format: in vivo, SD rats; details: 10 mg/kg orally; maximum difference in body temperature vs control over 6 hours
Description: Antipyretic Activity in Yeast-Induced Pyrexia Antipyretic activity was determined using male SD origin male-rats (7 weeks old, CLEA Japan, 1 group: n=6), according to the method of winter et. al. (J. Pharmacol. Exp. Ther., vol. 138, p. 405, 1963). Before 16 hours from measurement of body temperature, a suspension of 15% yeast in saline was injected subcutaneously (10 mL/kg, b.w.) into the rats to induce fever, and simultaneously supply of food was terminated while water was made available all the time. Each of the rats was raised separately. After 16 hours from the yeast shot, a thermistor terminal was inserted at an about 4 cm depth into rectum every hour, and the body temperatures after 30 seconds were recorded. After 18 hours, rats developing fevers consistently were selected, and a sample was orally administered to the rats (5 mL/kg, b.w.), while to the control, only the solvent was administered. After the administration, body temperatures were measured every hour for a period of 6 hours, and the maximum difference in body temperature between the rats in the sample group and in the control group were determined as Δ (° C.).

[2] = tested on: acetic acid induced rising and stretching; experiment: Analgesic activity, acetic acid rising method; format: in vivo, ICR-mice; details: po, 20 min; 10 mg/kg orally, 30 minutes before 0.6% acetic acid i.p.; number of rising and stretching in 20 minutes; read-out: Repression rate (%) Dosage 10 mg/kg
Description: Analgesic Activity Acetic Acid Rising Method Male ICR-mice (5 weeks old, CLEA Japan) were used (1 group, n=10), and a sample was orally administered (0.2 mL/10 g, b.w.). After 30 minutes, 0.6% acetic acid solution was injected to mice intraperitoneally (0.1 mL/10 g, b.w.), and the mice were immediately transferred into an observation cage made of a transparent acrylic resin. The number of rising and stretching during the following period of 20 minutes was counted. The repression rate (%) was calculated by comparing the average numbers between the sample groups and the control groups.

[3] = 10 mg/kg orally, 2 hr after carrageenin injection, read-out: Repression rate (%) Dosage 10 mg/kg 2 hr later
[4] = 10 mg/kg orally, 3 hr after carrageenin injection, read-out: Repression rate (%) Dosage 10 mg/kg 3 hr later

Cc1nn(-c2ccccn2)c2nc3ccccc3c(OC3CCCC3)c12 [Example 2-21, 4-Cyclopentyloxy-3-methyl-1-(2-pyridinyl)-1H-pyrazolo[3,4-b]quinoline]
IC50 (human COX-1): 4.21 µM
inhibition in vivo at 10 mg/kg [1, 3]: 52%
inhibition in vivo at 10 mg/kg [1, 4]: 45%
Δ (° C.) Dosage 10 mg/kg (yeast-induced pyrexia): 1.8** ° C.
inhibition in vivo at 10 mg/kg [2]: 56%

O=c1c2ccccc2[nH]c2c1cnn2-c1ccccn1 [Example 2-159, 1-(2-Pyridinyl)-1,9-dihydro-4H-pyrazolo[3,4-b]quinolin-4-one]
IC50 (human COX-1): 2.66 µM
inhibition in vivo at 10 mg/kg [1, 3]: 50%
inhibition in vivo at 10 mg/kg [1, 4]: 39%
Δ (° C.) Dosage 10 mg/kg (yeast-induced pyrexia): 1.8** ° C.
inhibition in vivo at 10 mg/kg [2]: 69%
melting point: 240 to 242 °C

Cc1nn(-c2ccccn2)c2[nH]c3cccc(F)c3c(=O)c12.Cl [Example 2-79, 5-Fluoro-3-methyl-1-(2-pyridinyl)-1,9-dihydro-4H-pyrazolo[3,4-b]quinolin-4-one hydrochloride]
IC50 (human COX-1): 7.8 µM
inhibition in vivo at 10 mg/kg ([1]; 2 h, read-out: Repression rate (%) Dosage 10 mg/kg 2 hr later): 37%
inhibition in vivo at 10 mg/kg ([1]; 3 h, read-out: Repression rate (%) Dosage 10 mg/kg 3 hr later): 33%
Δ (° C.) Dosage 10 mg/kg (yeast-induced pyrexia): 1.4** ° C.
inhibition in vivo at 10 mg/kg [2]: 38%
melting point: > 380 °C

CCCOc1c2ccccc2nc2c1c(C)nn2-c1ccccn1 [Example 2-17, 3-Methyl-4-propoxy-1-(2-pyridinyl)-1H-pyrazolo[3,4-b]quinoline]
IC50 (human COX-1): 7.28 µM
inhibition in vivo at 10 mg/kg [1, 3]: 45%
inhibition in vivo at 10 mg/kg [1, 4]: 37%
Δ (° C.) Dosage 10 mg/kg (yeast-induced pyrexia): 1.5** ° C.
inhibition in vivo at 10 mg/kg [2]: 49%

CCCNc1c2ccccc2nc2c1c(C)nn2-c1ccccn1 [Example 2-6, N-[3-Methyl-1-(2-pyridinyl)-1H-pyrazolo[3,4-b]quinolin-4-yl]-N-propylamine]
IC50 (human COX-1): 21.7 µM
inhibition in vivo at 10 mg/kg [1, 3]: 43%
inhibition in vivo at 10 mg/kg [1, 4]: 35%
Δ (° C.) Dosage 10 mg/kg (yeast-induced pyrexia): 0.8** ° C.
inhibition in vivo at 10 mg/kg [2]: 57%
melting point: 121 to 122 °C
